Results: patent US7615380B2, “Methods for modulating an immune response by modulating KRC activity” (President and Fellows of Harvard College, priority 2001, dated 2009)

Tests used:
[1] = system: CD69; experiment: CD69 expression by FACS in transfected Jurkat T cells; format: cell-based, human
Experimental: KRC was transfected into Jurkat T cells and CD69 expression was measured by FACS analysis.

[2] = system: c-Jun/c-Fos AP-1; experiment: c-Jun/c-Fos protein stability time course with cycloheximide; format: cell-based
Experimental: The above experiments mapped the interaction site of KRC with c-Jun to aa 204-1055 of KRC. The interaction of full-length KRC with c-Jun was tested. […] Time course experiments were performed in which overexpressed sense KRC or an antisense KRC previously shown to block production of endogenous KRC protein were coimmunoprecipitated with overexpressed c-Jun and c-Fos. […] The same set of experiments were performed using c-Fos, a very short-lived cellular protein. […] The ability of KRC to promote the degradation of other fos family members Fra1, Fra2 and Fos B was also tested (FIG. 23(D)). […] The protein stability of V-fos was not affected by altering levels of KRC by sense or antisense overexpression.

[3] = system: IL-2 promoter; experiment: IL-2 promoter, NFAT/AP-1 and NFAT luciferase reporters and IL-2 RT-PCR in Jurkat cells; format: cell-based, human
Experimental: FIG. 19(A) Stably transfected Jurkat T cell clones with vector (vec) or KRC (Jurkat-KRC) were stimulated with PMA (50 ng/mL) plus ionomycin (2 μM) for 6 hours. IL-2 mRNA abundance was determined by RT-PCR with tubulin as an internal control. FIG. 19(B) Jurkat cells were transiently transfected with an IL-2-Luciferase reporter along with Vector, KRC, or KRCtr (amino acids 204-1055) and, in all cases, a CMV-β-Gal reporter as an internal control (see text for details). 24 hours later, cells were stimulated with PMA plus ionomycin for 6 hours (upper panel) or Raji cells loaded with SEE for 8 hours (lower panel). Luciferase activity was determined and normalized for β-Galactosidase activity. FIG. 19(C) Jurkat cells were transiently transfected with NFAT/AP-1-, NFAT-, or AP-1-Luciferase reporters and treated as above.
For each transfection, 5×10^6 Jurkat cells were incubated with either IL2-Luc, NFAT/AP1-Luc or AP1-Luc reporter DNA together with pEF vector or pEF-KRC and CMV-βGAL as normalization control in 0.4 ml of RPMI and transfected by electroporation (260 v, 975 uF). Transfected cells were cultured at 37° C. for 20 h in RPMI 1640 medium (Gibco BRL) supplemented with 10% fetal bovine serum. Transfected cells were stimulated with PMA (50 ng/ml) and ionomycin (2 uM) for 6 hours prior to luciferase (Promega) and β-galactosidase assays (Galacton-PLUS substrate system, TROPIX, Inc).
Total RNA was isolated from T cells using TRIZOL™ reagent (Gibco/BRL). One (1) μg of total RNA was reverse transcribed using iScript cDNA Synthesis Kit (BioRad). PCR was performed with 2 uM of each primer (listed below) and 2.5 units of Platinum High fidelity enzyme (Invitrogen) according to the manufacturer.
Jurkat cells were transfected by electroporation and incubated for 20 h at 37° C. before stimulation for 8 h with the Raj i B cell line and Staphylococcal Enteroxin E (SEE) using Raji cells (1:1 with Jurkat cells) and SEE (200 ng/ml).

In the case of “KRC: full-length KRC zinc finger protein (SEQ ID NO:2) overexpressed from an expression vector”, the CD69 expression [1] is reported as “increases expression of CD69”, the c-Jun degradation ([2]; low dose cycloheximide) is reported as “rapid degradation of c-Jun” and the “stability of the c-Fos protein” value ([2]; presence of cycloheximide) is reported as “compromised”. For the same substance, the “PMA/ionomycin induced activity of NFAT reporter” value ([3]; Jurkat cells) was “not further increased”, the IL-2 promoter-luciferase induction ([3]; Jurkat cells, PMA plus ionomycin) was “approximately 10 fold” and the “transactivation of multimerized NFAT/AP-1 and AP-1 elements” value ([3]; Jurkat cells, PMA/ionomycin) was “enhanced PMA/ionomycin-induced transactivation”. The “IL-2 promoter activity increase” value ([3]; Jurkat cells, Raji cells plus SEE) was “approximately 10 fold” and the “IL-2 mRNA transcripts (RT PCR)” value ([3]; stable Jurkat clones, activated) was “higher levels of IL-2 transcripts”.
